For one test, the system named is AGS. Briefly: Growth inhibition of human AGS cells. It is filed as functional.
Test [1] can be described thus: Growth inhibition of human KATO III cells. It is filed as functional.
For a further test, the system named is SNU1. In words: Growth inhibition of human SNU1 cells. In kind it is functional.
For the next test, the system named is SK-OV-3. Briefly: Growth inhibition of human SKOV3 cells. In kind it is functional.
A further test deals with OVCAR-8. Briefly: Growth inhibition of human OVCAR8 cells. It is filed as functional.
Another test has as its system BXPC-3. Briefly: Growth inhibition of human BxPC3 cells. It is filed as functional.
In the next test the test system is PANC-1. Briefly: Growth inhibition of human PANC1 cells. In kind it is functional.
A further test deals with T-24. Briefly: Growth inhibition of human T24 cells. It is filed as functional.
The subject of another test is WiDr. In words: Growth inhibition of human WiDr cells. It is filed as functional.
For test [2], the system named is HepG2. Briefly: Growth inhibition of human HepG2 cells. It is filed as functional.
Another test has as its system SN12C. In words: Growth inhibition of human SN12C cells. It is filed as functional.
Test [3] deals with MCF7. Briefly: Growth inhibition of human MCF7 cells. It is filed as functional.
Test [4] deals with HepG2. Briefly: Antiproliferative activity against human HepG2 cells after 72 hrs by ELISA. In kind it is functional, cell-based. The settings on record: HepG2, 72 h.
The test system of test [5] is Caco-2. Briefly: Antiproliferative activity against human Caco2 cells after 72 hrs by ELISA. In kind it is functional, cell-based. The settings on record: Caco-2, 72 h.
Test [6] relates to MCF7. Briefly: Antiproliferative activity against human MCF7 cells after 72 hrs by ELISA. It is filed as functional, cell-based. The settings on record: MCF7, 72 h.
Test [7] concerns the target RAC-alpha serine/threonine-protein kinase (Homo sapiens, UniProt P31749). Briefly: Inhibition of AKT phosphorylation in human K562 cells. It is filed as cell-based.
The test system of test [8] is MCF7. Briefly: Cytotoxicity against human MCF7 cells assessed as reduction in cell viability after 68 hrs by MTT assay. In kind it is functional, cell-based. The settings on record: MCF7, 68 h.
Test [9] concerns HeLa. Briefly: Cytotoxicity against human HeLa cells assessed as reduction in cell viability after 68 hrs by MTT assay. In kind it is functional, cell-based.
Test [10] deals with K562. In words: Cytotoxicity against human K562 cells assessed as reduction in cell viability after 68 hrs by MTT assay. It is filed as functional, cell-based. The settings on record: K562, 68 h.
The subject of test [11] is A549. In words: Cytotoxicity against human A549 cells assessed as reduction in cell viability after 68 hrs by MTT assay. In kind it is functional, cell-based. The settings on record: A549, 68 h.
Test [12] relates to A549. In words: Cytotoxicity against human A549 cells assessed as reduction in cell viability by MTT assay. It is filed as functional, cell-based.
Test [13] relates to MCF7. Briefly: Cytotoxicity against human MCF7 cells assessed as reduction in cell viability by MTT assay. The settings on record: Homo sapiens, MCF7. It is filed as functional, cell-based.
In a further test the test system is SK-MEL-28. Briefly: Cytotoxicity against human SK-MEL-28 cells assessed as reduction in cell viability after 24 hrs by MTT assay. The settings on record: SK-MEL-28, 24 h. In kind it is functional, cell-based.
The test system of a further test is BT-20. In words: Cytotoxicity against human BT20 cells assessed as reduction in cell viability after 24 hrs by MTT assay. In kind it is functional, cell-based. The settings on record: BT-20, 24 h.
A further test concerns DU-145. Briefly: Cytotoxicity against human DU145 cells assessed as reduction in cell viability after 24 hrs by MTT assay. It is filed as functional, cell-based. The settings on record: DU-145, 24 h.
The subject of test [14] is A549. Briefly: Cytotoxicity against human A549 cells assessed as reduction in cell viability after 24 hrs by MTT assay. It is filed as functional, cell-based. The settings on record: A549, 24 h.
Test [15] has as its system HeLa. Briefly: Cytotoxicity against human HeLa cells assessed as reduction in cell viability after 72 hrs by MTT assay. It is filed as functional, cell-based.
The subject of test [16] is Caco-2. In words: Cytotoxicity against human Caco2 cells assessed as reduction in cell viability after 72 hrs by MTT assay. It is filed as functional, cell-based. The settings on record: Caco-2, 72 h.
Test [17] relates to K562. In words: Cytotoxicity against human K562 cells assessed as reduction in cell viability after 72 hrs by MTT assay. In kind it is functional, cell-based. The settings on record: K562, 72 h.
Another test concerns HCT-116. Briefly: Cytotoxicity against human HCT116 cells assessed as reduction in cell viability after 96 hrs by MTT assay. In kind it is functional, cell-based. The settings on record: HCT-116, 96 h.
A further test relates to MDA-MB-231. Briefly: Cytotoxicity against human MDA-MB-231 cells assessed as reduction in cell viability after 96 hrs by MTT assay. It is filed as functional, cell-based. The settings on record: MDA-MB-231, 96 h.
The next test has as its system HT-29. In words: Cytotoxicity against human HT-29 cells assessed as reduction in cell viability after 96 hrs by MTT assay. In kind it is functional, cell-based. The settings on record: HT-29, 96 h.

≈ marks a conversion by molar mass, not a printed value.

Sequence of RAC-alpha serine/threonine-protein kinase (P31749 whole entry): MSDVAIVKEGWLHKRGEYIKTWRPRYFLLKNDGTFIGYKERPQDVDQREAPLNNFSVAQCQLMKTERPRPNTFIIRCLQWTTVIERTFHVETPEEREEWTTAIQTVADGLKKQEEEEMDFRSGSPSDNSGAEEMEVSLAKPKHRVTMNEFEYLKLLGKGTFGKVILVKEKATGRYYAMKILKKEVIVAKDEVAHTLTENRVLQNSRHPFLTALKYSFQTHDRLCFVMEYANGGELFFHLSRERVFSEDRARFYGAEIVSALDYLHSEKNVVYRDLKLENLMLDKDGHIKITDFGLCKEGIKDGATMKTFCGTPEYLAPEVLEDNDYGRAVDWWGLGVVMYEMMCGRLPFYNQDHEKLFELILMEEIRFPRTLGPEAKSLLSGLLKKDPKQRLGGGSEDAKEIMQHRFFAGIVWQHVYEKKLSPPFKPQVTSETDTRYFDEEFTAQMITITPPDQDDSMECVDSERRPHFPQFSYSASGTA

`Cc1cc2nc(-c3cc4ccccc4oc3=O)[nH]c2cc1C`: the GI50 (with AGS; in test [1]; with SNU1; in the test with SK-OV-3; in the test with OVCAR-8; in the test with BXPC-3) was 0.07 to 3.57 µM each time. Further, the GI50 with PANC-1 was 0.07 to 3.57 µM; in the test on T-24 it was 0.07 to 3.57 µM; in the test on WiDr it was 0.07 to 3.57 µM; in the test on HepG2 [2], 0.07 to 3.57 µM; with SN12C it was 0.07 to 3.57 µM; with MCF7 [3] it was above 10 µM.

As to `Cc1ccc2[nH]c(-c3cc4ccccc4oc3=O)nc2c1`, the GI50 (in the test with AGS; in [1]; in the test on SNU1; in the test on SK-OV-3; in the test with OVCAR-8; with BXPC-3) was 0.07 to 3.57 µM throughout. The GI50 with PANC-1 was 0.07 to 3.57 µM; with T-24, 0.07 to 3.57 µM; with WiDr it was 0.07 to 3.57 µM; with HepG2 [2], 0.07 to 3.57 µM; with SN12C, 0.07 to 3.57 µM; in the test with MCF7 [3], above 10 µM.

On to `C/C(=N\Nc1ccccc1)c1ccc(NS(=O)(=O)c2ccc3oc(=O)ccc3c2)cc1`, for which the IC50 is 5.03 to 175 µM with HepG2 [4], 8.53 µM with Caco-2 [5] and 5.03 to 175 µM in the test on MCF7 [6].

`Cc1c(Cc2ccc(NC(=O)Nc3ccc(F)c(F)c3)nc2)c(=O)oc2cc(O)c(C(C)(C)C)cc12`: the IC50 was below 10 µM in [7]; 1.66 to 7.86 µM in the test with MCF7 [8]; 1.66 to 7.86 µM with HeLa [9]; 1.66 to 7.86 µM in the test on K562 [10]; 1.66 to 7.86 µM in the test with A549 [11].

On to `O=C(CNCc1cccnc1)Nc1cc2ccccc2oc1=O`, for which the half-inhibitory concentration (IC50) in the test on A549 [12] and with MCF7 [13] was 69.1 to 378 µM each time.

Take `C/C(=N\Nc1ccc([N+](=O)[O-])cc1[N+](=O)[O-])c1ccc(NS(=O)(=O)c2ccc3oc(=O)ccc3c2)cc1`: the IC50 in the test with HepG2 [4], with Caco-2 [5] and in the test with MCF7 [6] was 5.03 to 175 µM throughout.

Turning to `O=C(Cn1nc(Cc2ccccc2Br)[nH]c1=O)NNC(=O)c1cc2cc(Cl)cc(Cl)c2oc1=O`, the IC50 in the test with SK-MEL-28, with BT-20, in the test on DU-145 and with A549 [14] was 3.1 to 37.9 µg/mL (≈ 5.47 to 66.8 µM) each time.

As for `C/C(=N\NC1=NC(=O)CS1)c1ccc(NS(=O)(=O)c2ccc3oc(=O)ccc3c2)cc1`, the IC50 with HepG2 [4] was 5.03 µM; in the test on Caco-2 [5], 5.03 to 175 µM; with MCF7 [6] it was 5.03 to 175 µM.

Regarding `C/C(=N\NC1=NC(=O)C(C)S1)c1ccc(NS(=O)(=O)c2ccc3oc(=O)ccc3c2)cc1` (centres undefined), the IC50 in the test on HepG2 [4], with Caco-2 [5] and in the test with MCF7 [6] was 5.03 to 175 µM each time.

For the molecule `COc1ccc(-c2cn(Cc3cc(=O)oc4cc(O)c(O)cc34)nn2)cc1`, the half-maximal inhibitory concentration (IC50) with HeLa [15], with Caco-2 [16] and in the test on K562 [17] was 9.7 to 81.9 µM in each case.

In the case of `COc1cccc(-c2cn(Cc3cc(=O)oc4cc(O)c(O)cc34)nn2)c1`, the IC50 with HeLa [15], in the test with Caco-2 [16] and with K562 [17] was 9.7 to 81.9 µM in each case.

Turning to `O=C(Cn1nc(Cc2ccc(Cl)cc2)[nH]c1=O)NNC(=O)c1cc2cc(Cl)cc(Cl)c2oc1=O`, the 50% inhibitory concentration (IC50) with SK-MEL-28, in the test with BT-20, in the test with DU-145 and with A549 [14] was 3.1 to 37.9 µg/mL (≈ 5.93 to 72.5 µM) in each case.

In the case of `C/C(=N\Nc1nc(C)c(-c2ccccc2)s1)c1ccc(NS(=O)(=O)c2ccc3oc(=O)ccc3c2)cc1`, the IC50 with HepG2 [4] is 3.48 µM; with Caco-2 [5], 5.03 to 175 µM; in the test with MCF7 [6], 5.03 to 175 µM.

In the case of `O=C(Cn1nc(Cc2ccc(Cl)c(Cl)c2)[nH]c1=O)NNC(=O)c1cc2cc(Cl)ccc2oc1=O`, the IC50 with SK-MEL-28, in the test on BT-20, in the test on DU-145 and in the test with A549 [14] was 3.1 to 37.9 µg/mL (≈ 5.93 to 72.5 µM) in each case.

In the case of `Cc1ccc2c(Cn3cc(CO[C@H]4O[C@@H]5O[C@@]6(C)CC[C@H]7[C@H](C)CC[C@@H]([C@H]4C)[C@@]57OO6)nn3)cc(=O)oc2c1`, the 50% inhibitory concentration (IC50) with HCT-116, with MDA-MB-231 and with HT-29 was 8.57 to 100 µM throughout.

`COc1ccc2oc(=O)c(-c3nc4cc(OC)ccc4[nH]3)cc2c1`: the concentration for 50% growth inhibition (GI50) (with AGS; in [1]; with SNU1; in the test with SK-OV-3; in the test with OVCAR-8; in the test on BXPC-3) was 0.07 to 3.57 µM throughout. For the same molecule, the 50% growth inhibitory concentration (GI50) in the test on PANC-1 was 0.07 to 3.57 µM; in the test with T-24, 0.07 to 3.57 µM; with WiDr, 0.07 to 3.57 µM; with HepG2 [2] it was 0.07 to 3.57 µM; with SN12C, 0.07 to 3.57 µM; with MCF7 [3] it was above 10 µM.

These data come from ChEMBL document CHEMBL4373717, “Coumarin-containing hybrids and their anticancer activities” (Eur J Med Chem, 2019).
